This note sets out measurements from ChEMBL document CHEMBL1157539, “Thousands of chemical starting points for antimalarial lead identification” (Nature, 2010).

In the assay the test system is Plasmodium falciparum. Briefly: GSK_TCMDC: Inhibition of Plasmodium falciparum 3D7 in whole erythrocytes, using parasite LDH activity as an index of growth. The note with it: Plasmodium falciparum, 3D7. It counts as functional, organism-based.
As to `CO/C(=C/C=C/c1cc2cc(Cl)c(Cl)cc2[nH]1)C(=O)NC1CC(C)(C)N(C)C(C)(C)C1`, the XC50 was 783 nM.
On to `COC(=O)CCCCCOc1cc(Cc2cnc(N)nc2N)cc(OC)c1OC`, for which the XC50 came to 179 nM.
`CCn1c(C(C)C)cc2c3c(N)nc(N)nc3ccc21` gave an XC50 of 12.4 nM.
In turn, `C1=C(c2c[nH]c3ccccc23)CCN(Cc2ccccc2)C1` registered an XC50 of 1040 nM.
The value for `COc1ccc2nc3cc(Cl)ccc3c(NCCCCNc3c4ccc(Cl)cc4nc4ccc(OC)cc34)c2c1` was 160 nM; that for `Cc1[nH]c(C)c(-c2ccc(Oc3ccc(Cl)cc3)cc2)c(=O)c1Br` was 592 nM; that for `O=C(NCC1CCN(Cc2cccc(C(F)(F)F)c2)C1)c1cc(-c2cccc(C(F)(F)F)c2)cs1` (stereo unspecified) was 608 nM.
For the compound `CCNc1cc(C(=O)N[C@@H](Cc2ccccc2)[C@H](O)CNC2C3CC4CC(C3)CC2C4)cc(N2CCCCS2(=O)=O)c1` (stereo partly specified), the XC50 was found to be 668 nM.
Take `COc1cccc(NC(=O)Nc2ccc(Nc3nc(C)cc(N(C)C)n3)cc2)c1`: the XC50 was 169 nM.
Next, `O=C1SC(S)=NC1=CNCCCCCCO`: 850 nM; `Cc1cc(NCCCOc2ccc(Cl)cc2)nc(NCc2ccccc2)n1`: 782 nM; `Cc1cnc(NCC2CCCCC2)nc1N[C@@H](CC(C)C)C(=O)Nc1ccccc1`: 869 nM.
As to `N#Cc1ccc(N/C(=N\c2ccccc2Cl)NC2CCN(Cc3ccccc3)CC2)c(O)c1`, the XC50 was found to be 300 nM.
Turning to `Cn1cncc1C(=O)Nc1cccc(-c2cccc(-c3nc4cc(F)ccc4[nH]3)c2)c1`, the XC50 came out at 493 nM.
For `COc1nc(-n2ccc(=N)cc2)nc2ccccc12`, the XC50 is 1060 nM.
Regarding `O=C(Nc1ccc(Cl)cc1)c1cccc2nc(C(F)(F)F)[nH]c12`, the XC50 stood at 764 nM.
On to `O=C(c1cccs1)N(Cc1cccc(-c2ccc(CNCCc3ccccc3)cc2)c1)C1CCN(Cc2ccccc2)CC1`, for which the XC50 turned out to be 860 nM.
`Cc1cc(Cl)ccc1N(Cc1ccccc1)c1ccnc(Cl)n1`: the XC50 was determined as 859 nM.
For the compound `CO/C(=C\C=C\c1cc2cc(Cl)c(Cl)cc2[nH]1)C(=O)NCCCN1CCN(c2cccc(OCC(=O)Nc3cccc(C(=O)c4ccccc4)c3)c2)CC1`, the XC50 amounted to 686 nM.
Next, `CC(C)(C)c1cc(C(=O)N2CCC(c3ccccn3)CC2)n(Cc2ccccc2)n1`: 955 nM.
With `CCC(C)C#Cc1c(C)nc(N)nc1N` (stereo unspecified), the XC50 was determined as 262 nM.
Next, `COc1cccc(CNc2ncc(-c3ccsc3)c(-c3nccs3)n2)c1`: 422 nM; `Cc1nc(-c2cccc(C(=O)N(Cc3cncn3Cc3cccc(C(F)(F)F)c3)CC3CC3)c2)cs1`: 941 nM; `CCN(CC)CCCC(C)Nc1c2ccccc2nc2c1ccc1ccccc12` (stereo unspecified): 1090 nM.
Compound `N=C(N)NN=Cc1ccc2c(c1)Cc1ccccc1-2` came in with an XC50 of 586 nM.
Regarding `COc1cc(CNCCC(C)C)ccc1OCc1cccc(COc2ccc(CNCCC(C)C)cc2OC)c1`, the XC50 is 492 nM.
The value for `Cc1ccoc1C(=O)Nc1cccc(-c2cccc(-c3nc4cc(C(F)(F)F)ccc4[nH]3)c2)c1` was 613 nM.
On to `O=C(NCCCCN1CCC(c2ccc3c(c2OCC2CC2)CCCC3)CC1)c1ccc(NC(=O)c2ccc(Cl)cc2)cc1`, for which the XC50 came to 680 nM.
Regarding `CNC(=O)c1ccccc1Nc1nc(Nc2ccc(N3CCN(C)CC3)nc2)ncc1C`, the XC50 was 1140 nM.
The value for `FC(F)(F)c1cccc(CNCC2CCN(CC3CCCCC3)CC2)c1` was 402 nM; that for `COc1cc2c(cc1N1CCN(C)CC1)N(C(=O)Nc1ccc(-c3ccncc3)c(Cl)c1Cl)CC2` was 608 nM.
The compound `COc1ccc(C(=O)Nc2cc(Br)c3c(c2)CNCC3)cc1Br` displayed an XC50 of 915 nM.
The compound `CCOc1cc(C(=O)NC2CCN(Cc3ccccc3)CC2)ccc1-c1nc2cc(Cl)c(F)cc2[nH]1` showed an XC50 of 802 nM.
In turn, `OC(CN(Cc1ccccc1)Cc1ccccc1)Cn1c2ccc(Cl)cc2c2cc(Cl)ccc21` (stereo unspecified) showed an XC50 of 995 nM.
Next, `CC1(C)N=C(N)N=C(N)N1OCc1cccc2c1ccc1ccccc12`: 3.2 nM.
For the compound `CO/C(=C\C=C\c1cc2cc(Cl)c(Cl)cc2[nH]1)C(=O)NCCCN1CCN(c2cccc(CCCO)c2)CC1`, the XC50 turned out to be 1030 nM.
Compound `CCCC(=O)Nc1ccc(Cl)c(NC(=O)COc2cc(C)ccc2C(C)C)c1` displayed an XC50 of 933 nM.
The compound `CCCCCCCN1CCC(NC(=O)Nc2ccnc3ccc(OC)cc23)C(C(=O)OCC)C1` (stereo unspecified) returned an XC50 of 426 nM.
Next, `Cc1cc(N[C@@H](Cc2ccccc2)C(=O)NCCc2ccccc2)nc(NCCc2cccs2)n1`: 713 nM.
Consider `O=C(/C=C/c1ccc(Cl)c(Cl)c1)N1CCC(CCN2CCC(c3c[nH]c4cc5c(cc34)OCO5)CC2)CC1`, for which the XC50 is 732 nM.
Next, `Cc1cccc(Nc2nc(NCCCCN)nc3cc[nH]c(=O)c23)c1`: 733 nM.
`COc1ccc2c(=NN=Cc3c(OC)ccc4ccccc34)cc(C)[nH]c2c1`: the XC50 turned out to be 777 nM.
`O=C(Nc1cccc(-c2csc(-c3nc4ccccc4[nH]3)c2)c1)c1cccnc1` displayed an XC50 of 230 nM.
For the compound `CCCCCN1CCC(NS(=O)(=O)c2cccc(C(=O)Nc3cccc(C(F)(F)F)c3)c2)C1` (stereo unspecified), the XC50 came out at 826 nM.
Take `CN1CCN(c2ccnc3cc4c(cc23)N(C(=O)Nc2ccc3c(c2)CCCC3=O)CC4)CC1`: the XC50 came to 623 nM.
`O=C(NCCCN1CCN(c2cccc(Cl)c2)CC1)c1ccc(-c2nc3cc(Cl)c(Cl)cc3[nH]2)c(F)c1` gave an XC50 of 826 nM.
Regarding `Cc1cc(Nc2ccc(OCc3ccccc3Cl)cc2)c2cc(Cl)ccc2n1`, the XC50 was determined as 433 nM.
The value for `C=CCOc1ccc2ccccc2c1CNCCCCCCNCc1c(OCC=C)ccc2ccccc12` was 859 nM.
As for `CCOc1cc(Br)c(C(C)NC(=O)c2cccc(OC)c2)cc1OCC` (stereo unspecified), the XC50 is 168 nM.
Take `NCc1cccc(-c2ccccc2CNC2CCN(Cc3ccccc3)CC2)c1`: the XC50 turned out to be 770 nM.
`NCCNc1ccc([N+](=O)[O-])cc1C(=O)Nc1cccc(Cl)c1` showed an XC50 of 1260 nM.
`O=C(NNC(=O)c1ccc(CCN2CCC(c3nc(COCC(F)(F)F)c(-c4ccc(F)cc4)o3)CC2)cc1)Nc1ccc(Oc2ccccc2)cc1`: the XC50 was found to be 708 nM.
`COc1ccc(CNCc2ccccc2)cc1-c1ccc(S(=O)(=O)NCCN2CCCC2)cc1` yielded an XC50 of 824 nM.
Regarding `CCCC(C)NC(=O)[C@H](CC1CCCCC1)NC(=O)c1ccc(O)c(-c2ccc(OC)cc2)c1` (stereo partly specified), the XC50 amounted to 1130 nM.
`Cc1nc(C)c(-c2ccc(Cl)cc2Cl)c(O)c1Br` returned an XC50 of 1010 nM.
`CCOc1ccc(-c2nc(NC(=O)COc3ccc(OC)cc3)sc2C)cc1` came in with an XC50 of 541 nM.
For the compound `Clc1ccc(CNc2nc(NCCc3c[nH]cn3)nc(N3CCCC4CCCCC43)n2)cc1` (stereo unspecified), the XC50 is 591 nM.
Consider `O=C(Nc1cccc(-c2ccc(-c3nc4cc(C(F)(F)F)ccc4[nH]3)cc2)c1)c1c[nH]cn1`, for which the XC50 was determined as 966 nM.
In turn, `Cc1ccccc1C1CCN(c2ncc(C(=O)NC3CC3)cc2Cl)CC1` returned an XC50 of 697 nM.
As for `CN1CCCC(CN2CCN(Cc3cccc(-c4ccc(-c5nc6cc(C(F)(F)F)ccc6[nH]5)cc4)c3)CC2)C1` (stereo unspecified), the XC50 stood at 145 nM.
With `O=C(Cc1c[nH]cn1)Nc1cccc(-c2ccc(-c3nc4cc(C(F)(F)F)ccc4[nH]3)s2)c1`, the XC50 was determined as 773 nM.
The value for `CC[C@H]1CN2CC[C@H]1C[C@H]2[C@H](O)c1cc(/C=C/c2ccc(F)cc2)nc2ccc(OC)cc12` was 28.1 nM; that for `CC(C)CNCc1ccc(-c2cccc(-c3nc4ccccc4[nH]3)c2)cc1` was 626 nM; that for `CCCCNCc1ccc(-c2nc(CN(Cc3ccc(Cl)c(Cl)c3)C(=O)CN(C)C)cs2)cc1` was 805 nM.
In the case of `COc1ccc(O)c(C(=O)c2cc(C(=O)NC3CCCCC3)c(=O)n(C3CCCCC3)c2)c1`, the XC50 was 664 nM.
In turn, `CCc1ccc(NC(=O)N(CCCN2CCN(C)CC2)Cc2csc(-c3ccc(CNCc4ccccc4)cc3)n2)cc1` returned an XC50 of 1010 nM.
In turn, `CC(C)(C)c1ccc(NC(=O)c2ccc(CN3CCCN(Cc4cccc(Cl)c4)CC3)cc2)cc1` gave an XC50 of 972 nM.
With `N=C1SC(=Cc2cn[nH]c2-c2ccc(F)cc2)C(=O)N1c1nccs1`, the XC50 was found to be 225 nM.
The value for `COc1cc(F)c2ncc(Cl)c(CCN3CCC(NCc4ccc5c(n4)NC(=O)CS5)CC3)c2c1` was 482 nM; that for `O=C(C=Cc1ccc(Cl)c(Cl)c1)NCCCCCN1CCC(CCCNS(=O)(=O)c2cccc(C(F)(F)F)c2)CC1` was 477 nM; that for `O=C(Nc1cc(C(F)(F)F)cc(C(F)(F)F)c1)c1cccc([N+](=O)[O-])c1` was 895 nM.
For the compound `Oc1ccc2ccccc2c1CNCCC1CCCCC1`, the XC50 turned out to be 174 nM.
The value for `COc1ccc(-c2cccc(NC(=O)c3ccc(Cl)cc3)c2)cc1CN1CCC(O)CC1` was 791 nM.
In turn, `CCNc1cc(C(=O)N[C@@H](Cc2ccccc2)[C@H](O)CN[C@H](C)C(C)(C)C)cc(N2CCCCS2(=O)=O)c1` had an XC50 of 820 nM.
The compound `O=C(NCCCCN1CCC(c2ccc(C(F)(F)F)cc2C(F)(F)F)CC1)c1ccc(NC(=O)c2ccc(Cl)cc2)cc1` yielded an XC50 of 613 nM.
Next, `Cc1cc(NC(=O)c2cc(S(=O)(=O)N3CCCCC3)ccc2C)no1`: 725 nM; `CCNc1cc(C(=O)N[C@@H](Cc2ccccc2)[C@H](O)CNC2(C)CCCCC2)cc(N2CCCCS2(=O)=O)c1`: 156 nM; `Cn1cnc(CCNC(=O)c2cccc(-c3csc(-c4nc5ccccc5[nH]4)c3)c2)c1`: 599 nM.
`O=C(Nc1cccc(-c2ccc(-c3nc4ccccc4[nH]3)cc2)c1)c1cccnc1` gave an XC50 of 1040 nM.
Compound `CCN(CCCNc1nc(=S)[nH]c2cc(OC)c(OC)cc12)c1ccccc1` came in with an XC50 of 721 nM.
As to `CN1CCN(CCc2ccc(N/C=C3\C(=O)Nc4ccc5ncccc5c43)cc2)CC1`, the XC50 came out at 325 nM.
Consider `Nc1c(C(=O)NCCCCN2CCN(c3nsc4ccccc34)CC2)sc2ccccc12`, for which the XC50 stood at 1320 nM.
On to `CN(C)CCNC(=O)c1ccc(-c2cnc3ccc(NCc4ccc(Cl)c(Cl)c4)nn23)cc1`, for which the XC50 stood at 913 nM.
Consider `CCCNC(=O)Nc1cc2cc(-c3cccc(CN4CCCCC4)c3)ccc2n2c(C)nnc12`, for which the XC50 came to 1110 nM.
The compound `CCOC(=O)N1CCN(CCCNc2c3ccc(Cl)cc3nc3ccc(OC)cc23)CC1` came in with an XC50 of 104 nM.
In turn, `CCN(CC)CC(O)Cc1c2ccc([N+](=O)[O-])cc2nc2cc(OC)c(OC)cc12` (stereo unspecified) yielded an XC50 of 739 nM.
